{"source": "patent US20250092058A1", "about": "(priority 2018, published 2025)", "key": {"[1]": {"system": "CD44 stem cell marker-positive PANC1 cells", "experiment": "CD44-positive PANC1 colony formation", "format": "cell-based, human", "protocol": "CD44 positive cell sorting and CD44-positive cell colony formation. CD44 positive (CD44+) cells were purified (sorted out) using fluorescence activated cell sorting (FACS). FITC-conjugated mouse anti-human CD44 was used in FACS purification of CD44+ PANC1 cells. Briefly, PANC1 cells were harvested by using 0.25% trypsin/0.02% EDTA. After re-suspension of the cells in cell-culture media, the cells were counted and washed in PBS with 2% FBS and collected by centrifugation. Add 10 μL FITC-CD44 antibody to 1 ml PBS containing 1 million cells and 2% of FBS for 30 minutes on ice. Following the antibody labeling, PANC1 cells were washed in PBS with 2% BSA before flow cytometric analysis was carried out on a BD FACSAria™ III cell sorter (BD Science, USA). […] Colonies were fixed, stained with crystal violet solution and images were taken before counting colonies on day 12. The experimental results were expressed as the mean±SD. The statistical significance of differences was determined by Student's t-test between two groups.\nTo further confirm these findings, we alternatively used the typical matrigel-based CSC sphere formation assay which is know to more closely mimic in vivo situations. In this assay only drug resistant stem-like cancer cells are able to form spheres. […] We performed colony formation of CD44 stem cell marker-positive cells using the stem-cell culture condition. […]"}, "PDX17624": {"system": "PDX17624", "experiment": "Pancreatic cancer PDX17624 in SCID mice", "format": "in vivo", "details": "5 mg/kg ip qw×4", "protocol": "(§1) Human pancreatic cancer patient-derived xenograft (PDX) tumor mouse model and treatment. Experiments followed the IACUC-approved mouse protocol. Briefly, human PDAC PDX tumors maintained on SCID mice were isolated, and a piece of non-necrotic tumor tissues (30-40 mg) were subcutaneously transplanted into the flank area of female SCID mice. […] In this study, we used the timesaving intraperitoneal (ip) route for drug administration. […] The formulation process was described in detail in our previous patent (PCT/US2011/058558). […] Tumor length (L) and width (W) were measured using digital vernier calipers 1-3 times per week until the end of experimental studies. The tumor volume (v) was calculated using the formula: v=0.5 (L×W^2). Then the tumor size was divided by the day 0 tumor size as percentage tumor size versus day 0. The mean tumor volume ± standard deviation (SD) at each time point was derived from 5 mice in each group. The tumor curves were made using Sigma Plot software.\n(§2) It has been recently documented that pancreatic cancer PDXs retain active paracrine/Hedgehog signaling, and desmoplasia is active in PDX tumor mouse models."}, "PDX14244": {"system": "PDX14244", "experiment": "Pancreatic cancer PDX14244 in SCID mice", "format": "in vivo", "details": "5 mg/kg ip qw×4", "protocol": "as §1, §2"}, "A549": {"system": "A549", "format": "cell-based, human", "details": "Table 13; MTT; A549 lung cancer"}, "[2]": {"experiment": "Stability of FL118 formulated suspension", "details": "no observable change in antitumor efficacy vs freshly prepared"}, "HepG2": {"system": "HepG2", "format": "cell-based, human", "details": "Table 13; MTT; HepG2 liver cancer"}, "A2780CP70-GFPcODC cells": {"system": "A2780CP70-GFPcODC cells", "experiment": "GFPcODC drug-resistant cell tracking, A2780CP", "format": "cell-based, human", "details": "10 nM and 100 nM", "source_text": "Generation of A2780-GFPcODC, A2780CP-GFPcODC and PANC1GFPcODC cells and fluorescence microscopy to detect stem-like and drug resistant green cells. The retroviral expression vector pQCXIN-ZsGreen-cODC (ornithine decarboxylase), containing a green fluorescence marker, was kindly provided by Dr. Frank Pajonk (Vlashi E, et al., In vivo imaging, tracking, and targeting of cancer stem cells. J Natl Cancer Inst. 2009; 101: 350-9). The retroviral particles collected from packaging cells that transfected with the above vector were infected into A2780, A2780CP and PANC1 cells, respectively. The transfected cell pool was used for experiments. The transfected cells were treated with and without cisplatin or FL118 alone or in combination for defined times. Cell images were acquired digitally using the Olympus IX73 Inverted Score s (Olympus). Percentages of living cells were obtained from the average of the total cells counted from 10 microscopic fields.\nTo test this, we used a novel approach developed in Dr. Pajonk's lab for the live tracking of drug resistant cells (Vlashi E, et al., In vivo imaging, tracking, and targeting of cancer stem cells. J Natl Cancer Inst. 2009; 101: 350-9). This approach takes advantage of reduced 26S proteasome activity of drug resistant cells. […]"}, "FL118 MTD in SCID mice": {"experiment": "FL118 MTD in SCID mice", "format": "in vivo"}, "[3]": {"details": "BALB/cj mice, FL118 MTD 10 mg/kg oral qw×4"}, "[4]": {"details": "BALB/cj mouse serum, FL118 MTD 10 mg/kg oral qw×4"}}}
{"smiles": "CC[C@@]1(O)C(=O)OCc2c1cc1n(c2=O)Cc2cc3cc4c(cc3nc2-1)OCO4", "note": "[FL118, 10,11-methylenedioxy-camptothecin]", "values": [{"measurement": "colony formation", "setting": "[1]; 1 nM", "result": "significantly inhibited colony formation"}, {"measurement": "colony formation", "setting": "[1]; 10 and 100 nM", "result": "completely eliminate colony formation"}, {"measurement": "antitumor efficacy", "setting": "PDX17624", "result": "able to eliminate these PDX tumors after one cycle of treatment"}, {"measurement": "antitumor efficacy", "setting": "PDX14244", "result": "able to eliminate these PDX tumors after one cycle of treatment"}, {"measurement": "IC50", "setting": "A549", "result": "81.8 ± 14", "unit": "nM"}, {"measurement": "stability of formulated suspension for oral administration", "setting": "[2]", "result": "more than 12 months"}, {"measurement": "IC50", "setting": "HepG2", "result": "68.5 ± 6.7", "unit": "nM"}, {"measurement": "decrease of GFPcODC-positive drug-resistant cell population", "setting": "A2780CP70-GFPcODC cells", "result": "more than 50%"}, {"measurement": "tolerability", "setting": "10 mg/kg oral qw×4", "result": "well tolerated"}, {"measurement": "BASO", "setting": "[3]", "result": 0, "unit": "K/μL"}, {"measurement": "EOS", "setting": "[3]", "result": "0.01-0.1 K/μL"}, {"measurement": "HCT", "setting": "[3]", "result": "26.1-30.9%"}, {"measurement": "HGB", "setting": "[3]", "result": "8.9 to 10.8", "unit": "g/dL"}, {"measurement": "LYM", "setting": "[3]", "result": "0.06-0.17 K/μL"}, {"measurement": "MCH", "setting": "[3]", "result": "14.8 to 15.3", "unit": "pg"}, {"measurement": "MCHC", "setting": "[3]", "result": "33.7 to 36", "unit": "g/dL"}, {"measurement": "MCV", "setting": "[3]", "result": "41.9 to 43.9", "unit": "fL"}, {"measurement": "MONO", "setting": "[3]", "result": "0.03-0.12 K/μL"}, {"measurement": "MPV", "setting": "[3]", "result": "8.1 to 8.6", "unit": "fL"}, {"measurement": "NEUT", "setting": "[3]", "result": "0.03-0.5 K/μL"}, {"measurement": "PDW", "setting": "[3]", "result": "13.8 to 14.4", "unit": "fL"}, {"measurement": "PLT", "setting": "[3]", "result": "487-1004 K/μL"}, {"measurement": "RBC", "setting": "[3]", "result": "6.01-7.04 M/μL"}, {"measurement": "RDW-SD", "setting": "[3]", "result": "23 to 24.8", "unit": "fL"}, {"measurement": "RET", "setting": "[3]", "result": "0.67-4.49 K/μL"}, {"measurement": "WBC", "setting": "[3]", "result": "0.33-0.6 K/μL"}, {"measurement": "ALB", "setting": "[4]", "result": "1.7 to 2.2", "unit": "g/dL"}, {"measurement": "ALP", "setting": "[4]", "result": "52-105 U/L"}, {"measurement": "ALT", "setting": "[4]", "result": "33-58 U/L"}, {"measurement": "BUN", "setting": "[4]", "result": "16 to 19", "unit": "mg/dL"}, {"measurement": "CHOL", "setting": "[4]", "result": "91 to 109", "unit": "mg/dL"}, {"measurement": "CREA", "setting": "[4]", "result": "≤0.1", "unit": "mg/dL"}, {"measurement": "Ca", "setting": "[4]", "result": "8.1 to 9.4", "unit": "mg/dL"}, {"measurement": "GLU", "setting": "[4]", "result": "87 to 185", "unit": "mg/dL"}, {"measurement": "PHOS", "setting": "[4]", "result": "10 to 13.3", "unit": "mg/dL"}, {"measurement": "TBIL", "setting": "[4]", "result": "≤0.1 to 0.3", "unit": "mg/dL"}, {"measurement": "TP", "setting": "[4]", "result": "3.4 to 4.1", "unit": "g/dL"}, {"measurement": "body weight loss", "setting": "≥12.5 mg/kg oral qw×4", "result": "> 20", "unit": "%"}, {"measurement": "maximum tolerated dose (MTD)", "setting": "FL118 MTD in SCID mice; oral formulation, tumor-bearing SCID mice, qw×4", "result": 10, "unit": "mg/kg"}, {"measurement": "MTD", "setting": "FL118 MTD in SCID mice; oral, q1d×5 and q2d×5", "result": "~1.5", "unit": "mg/kg"}, {"measurement": "MTD", "setting": "FL118 MTD in SCID mice; two doses in SCID mice, estimated", "result": 12, "unit": "mg/kg/dose"}]}
